Source: US6982142B2, “Methods for screening therapeutically effective agents” (John Wayne Cancer Institute, priority 1997, dated 2006)
Counter-ions that a name gives are not always drawn.

Key:
MCF-7/GCS cells = experiment: Analysis of ceramide and glucosylceramide ([3H]palmitic acid, TLC) in GCS-transfected cells; type: cell-based, human; details: adriamycin
Protocol: (§1) Analysis of Ceramide and Glucosylceramide. Analyses were performed as previously described (Lavie, 1997). Cellular lipids were radiolabeled by incubating cells with [^3H]palmitic acid (2.5 μCi/ml culture medium) for 24 hr. After removal of medium, cells were rinsed twice with PBS (pH 7.4), and lipids were extracted (Lavie, 1997). After nitrogen evaporation of solvents, total lipids were resuspended in 100 μl of chloroform /methanol (1:1, v/v), and aliquots were applied to TLC plates. Ceramide was resolved using solvent system I, which contained chloroform/acetic acid (90:10, v/v). […] Commercial lipid standards were co-chromatographed. After development, lipids were visualized by iodine vapor staining, and areas of interest were scraped into 0.5 ml water. EcoLume counting fluid (4.5 ml) was added, the samples were mixed, and radioactivity was quantitated by liquid scintillation spectrometry.
(§2) To further define the mechanism of drug resistance in MCF-7/GCS cells, cells were challenged with adriamycin and the metabolism of ceramide was evaluated (FIGS. 16A-16B). […] After 24 and 48 hr with adriamycin, GC levels in the GCS-transfected cells increased 1.4- and 2.1-fold, respectively.

MCF-7 cells [1] = experiment: Analysis of ceramide and glucosylceramide ([3H]palmitic acid, TLC) in parental cells; type: cell-based, human; details: adriamycin
Protocol: as §1, §2

MCF-7 wild-type cells [2] = experiment: Apoptosis by oligonucleosomal DNA fragmentation (gel electrophoresis) in wild-type cells; type: cell-based, human; details: doxorubicin 1.7 μM, 72 hr
Protocol: (§3) The effect of anthracyclines such as doxorubicin on ceramide formation is illustrated in FIG. 10A. Cells were seeded in 6-well plates (80,000 cells/well) in 2.0 ml medium containing 5% FBS. After 2 days of growth, cells were given doxorubicin (1.7 μM) and [^3H]palmitic acid (2.0 μCi/well) for 72 hr. Total cell lipids were extracted (Bligh and Dyer, 1959) and analyzed by applying 150,000 cpm (for ceramide analysis) and 50,000 cpm (for sphingomyelin analysis) from each sample to the origin of a Silica Gel G TLC plate and resolving [^3H]ceramide and [^3H]sphingomyelin as described in the Methods section. […] FIG. 10A illustrates that exposure of wild-type human breast cancer cells to doxorubicin (1.7 μM) caused, after 72 hours, a 6-fold increase in ceramide. […] Control and doxorubicin treated (1.7 μM) cells were grown in 10 cm culture dishes for 72 hr. Cells were harvested by trypsin-EDTA, centrifuged then incubated with digestion buffer (100 mM NaCl, 25 mM EDTA, 10 mM Tris-HCI, 0.5% SDS, 0.3 mg/ml Proteinase K, pH 8.0) at 45° C. for 18 hrs. DNA was extracted with phenol/chloroform/isoamyl alcohol (25:24:1, v/v/v) and precipitated in 1/3 volume 7.5 M ammonium acetate and 2 volume2 100% ethanol at −20° C. overnight. […] Re-extracted DNA (15 μg) was analyzed by electrophoresis on a 2% agarose gel in TAE buffer (40 mM Tris-acetate, 1.0 mM EDTA, pH 8.3). […]

MCF-7-AdrR cells [3] = system: MCF-7-AdrR cells
MCF-7-AdrR cells [4] = experiment: cells; details: Homo sapiens, 72 h, read-out: growth inhibition
MCF-7 wild-type cells [5] = experiment: Ceramide and sphingomyelin formation ([3H]palmitic acid, TLC) in wild-type breast cancer cells; type: cell-based, human; details: doxorubicin 1.7 μM
Protocol: as §3

MCF-7-AdrR cells [6] = experiment: Cell radiolabeling and TLC/LSC analysis of ceramide, glucosylceramide and sphingomyelin in MDR breast cancer cells; type: cell-based, human; details: for ceramide level, increase over control: adriamycin 2.5, PSC 833 5.0 μM, tamoxifen 5.0 μM alone or combined, 24 h, [3H]palmitic acid
Protocol: (§4) Cells. Experiments were conducted using the human MDR breast cancer cell line, MCF-7 AdrR (adriamycin resistant) provided by Drs. Kenneth H. Cowan and Merrill E. Goldsmith, National Cancer Institute. Cells were grown in RPMI-1640 medium containing 10% FBS (fetal bovine serum) and antibiotics as previously described (Lavie, 1997) and cultures were maintained in a humidified 6.5% CO2 atmosphere incubator. Trypsin (0.05%) and EDTA (0.5 mM) were used for subculture. Plastic tissue cultureware, was from Costar (96-well plates) and Corning (6-well plates, 6-cm dishes, T-75 flasks). Limited experiments were conducted using the human MDR epidermoid carcinoma cell line, KBV-1, provided by Dr. Michael M. Gottesman, National Cancer Institute. Cells were maintained as described (Lavie, 1996). Vinblastine was eliminated from the culture medium during the experiments.
Cell Radiolabeling and Lipid/Glycolipid Analysis. To follow lipid metabolism, cells were grown in the presence of tritiated ceramide precursors, L-[^3H]serine (20 Ci/mmol) (American Radiolabeled Chemicals, Inc., St. Louis), and [9, 10-^3H]palmitic acid (50 Ci/mmol) (DuPont NEN). Labeling media were prepared by adding microliter amounts of tritiated compounds (supplied in ethanol or sterile water) to medium containing only 5% FBS. After radiolabeling, 0.1 ml aliquots of medium were removed and analyzed by LSC (Lavie, 1997), in order to determine cellular uptake of the tritiated compounds. Cell monolayers were then rinsed twice with cold phosphate-buffered saline. Ice cold methanol containing 2% acetic acid was added, and cells were scraped free of the substratum (plastic scraper) for lipid extraction using chloroform and water in 1-dram glass vials as described (Lavie, 1997; Lavie, 1996; Bligh and Dyer, 1959). After centrifugation, the resulting organic lower phase of the biphasic extraction was withdrawn, transferred to a glass vial, and evaporated to dryness under a stream of nitrogen.
Radioactivity in glucosylceramide was analyzed by TLC resolution of total lipids (Silica Gel G) using a solvent system containing chloroform/methanol/ammonium hydroxide (80:20:2, v/v/v). Migration of glucosylceramide on TLC was compared with that of commercial standard (glucocerebrosides, Gaucher's spleen, Matreya, Inc., Pleasant Gap, Pa.), and lipid spots, after iodine vapor visualization, were scraped for tritium quantitation by LSC (Lavie, 1997; Lavie, 1996). […] Ceramide and sphingomyelin commercial standards (brain-derived) were from Avanti Polar Lipids, Alabaster, Ala. After iodine visualization of lipids, areas of the chromatogram corresponding to ceramide and sphingomyelin were scraped into minivials containing 0.5 ml water followed by 4.5 ml EcoLume (ICN, Costa Mesa, Calif.), and samples were analyzed for tritium by liquid scintillation spectrometry. Alternative analysis of ceramide consisted of subjecting an aliquot of the total cell lipid extract to mild alkaline hydrolysis (0.1 N KOH in methanol, 1 h at 37° C.) followed by re-extraction (Lavie, 1997). […] The same can also be done without tritium by simply applying 100-200 μg total cell lipid to TLC plates and developing them in the appropriate solvent, then spraying them with 30% H2SO4, charring the plate in an oven at 180° C. for 20 min, and measuring lipid mass by densitometry.

MCF-7 cells [7] = experiment: cells; type: cell-based; details: Homo sapiens, MCF7, 96 h, read-out: EC50 (cytotoxicity)
Protocol: Cytotoxicity Assay. The assay was performed as previously described (Lavie, 1997). […] Cultures were incubated at 37° C. for 24 hr before addition of drug. Drugs were added in FBS-free medium (0.1 ml), and cells were cultured at 37° C. for the indicated periods. Drug cytotoxicity was determined using the Promega 96 Aqueous cell proliferation assay kit. Absorbance at 490 nm was recorded using an ELISA reader (Molecular Devices, San Diego, Calif.).
Adriamycin was used to assess the influence of GCS transfection on cellular response to anthracyclines. After pretreatment with doxycycline for two days, MCF-7/GCS cells were incubated with increasing concentrations of adriamycin for four days. […] It was observed that MCF-7/GCS cells were resistant to ceramide toxicity as well. […] However, the EC50 in the TC group was nearly identical with that of MCF-7 cells, there being no statistical difference between the two groups (FIG. 14C).

MCF-7-wt cells = experiment: Cytotoxicity assay (Promega) in chemosensitive wild-type breast cancer cells; type: cell-based, human; details: PSC 833 10 μM, four days
KB-V-1 cells [8] = experiment: Ceramide and sphingomyelin metabolism ([3H]palmitic acid labeling) in vinblastine resistant epidermoid carcinoma cells; type: cell-based, human; details: PSC 833 5.0 μM
Protocol: as §4
Cell Radiolabeling and Lipid/Glycolipid Analysis. To follow lipid metabolism, cells were grown in the presence of tritiated ceramide precursors, L-[^3H]serine (20 Ci/mmol) (American Radiolabeled Chemicals, Inc., St. Louis), and [9, 10-^3H]palmitic acid (50 Ci/mmol) (DuPont NEN). […] After radiolabeling, 0.1 ml aliquots of medium were removed and analyzed by LSC (Lavie, 1997), in order to determine cellular uptake of the tritiated compounds. […]
Radioactivity in glucosylceramide was analyzed by TLC resolution of total lipids (Silica Gel G) using a solvent system containing chloroform/methanol/ammonium hydroxide (80:20:2, v/v/v). Migration of glucosylceramide on TLC was compared with that of commercial standard (glucocerebrosides, Gaucher's spleen, Matreya, Inc., Pleasant Gap, Pa.), and lipid spots, after iodine vapor visualization, were scraped for tritium quantitation by LSC (Lavie, 1997; Lavie, 1996). […] After iodine visualization of lipids, areas of the chromatogram corresponding to ceramide and sphingomyelin were scraped into minivials containing 0.5 ml water followed by 4.5 ml EcoLume (ICN, Costa Mesa, Calif.), and samples were analyzed for tritium by liquid scintillation spectrometry. […]

KB-V-1 cells [9] = experiment: Cytotoxicity in vinblastine resistant epidermoid carcinoma cells (estimated, not measured); type: cell-based, human; details: PSC 833 5.0 μM, 24 h
Protocol: To determine whether the influence of PSC 833 on ceramide metabolism was restricted to certain cell types, a vinblastine resistant epidermoid carcinoma, KB-V-1, was tested. In KB-V-1 cells exposed to 5.0 μM PSC 833 for 24 h, cellular levels of tritiated ceramide ([^3H]palmitic acid labeling) increased 8.7-fold over untreated cells. This is 4-fold higher than the ceramide increase elicited by PSC 833 in MCF-7-AdrR cells (FIG. 7). The increase in ceramide in KB-V-1 cells was accompanied by cytotoxicity, which while not measured was estimated at 80% cell death. Additionally, the PSC 833-induced increase in [^3H]ceramide was not accompanied by decreases in [^3H]sphingomyelin, but rather a slight increase in radiolabeled sphingomyelin (33% over the control).

[10] = increasing concentration, 60 min then [3H]palmitic acid for 23 h

Question: Which results are given for `COc1cccc2c1C(=O)c1c(O)c3c(c(O)c1C2=O)C[C@@](O)(C(=O)CO)C[C@@H]3O[C@H]1C[C@H](N)[C@H](O)[C@H](C)O1` [adriamycin, doxorubicin hydrochloride]?
Answer: GC level increase (MCF-7/GCS cells; 24 hr): 1.4 fold; ceramide level increase (MCF-7/GCS cells; 24 hr): 1.4 fold; GC level increase (MCF-7/GCS cells; 48 hr): 2.1 fold; ceramide level increase (MCF-7/GCS cells; 48 hr): 1.2 fold; GC levels (MCF-7 cells [1]; 24 and 48 hr): little impact; ceramide level increase (MCF-7 cells [1]; 24 hr): 3.4 fold; ceramide level increase (MCF-7 cells [1]; 48 hr): 3 fold; apoptosis (DNA laddering) (MCF-7 wild-type cells [2]): gave rise to apoptosis; cell survival (MCF-7-AdrR cells [3]; adriamycin 0.2 μM alone, 5-days): 90%; cell survival, % of control (MCF-7-AdrR cells [3]; adriamycin 0.1-1.0 μM, 5-days): 80-95 % of control; inhibition at 2.5 µM (MCF-7-AdrR cells [4]): 23%; ceramide increase (MCF-7 wild-type cells [5]; 72 hours): 6 fold; sphingomyelin production (MCF-7 wild-type cells [5]; 72 hr): increased only slightly; ceramide level, increase over control (MCF-7-AdrR cells [6]): not influenced; EC50 (MCF-7 cells [7]): 370 ± 10 nM

Question: How did the “reduction in cell survival” value (MCF-7-wt cells) turn out when `C/C=C/C[C@@H](C)C(=O)[C@H]1C(=O)N[C@@H](C(C)C)C(=O)N(C)CC(=O)N(C)[C@@H](CC(C)C)C(=O)N[C@@H](C(C)C)C(=O)N(C)[C@@H](CC(C)C)C(=O)N[C@@H](C)C(=O)N[C@H](C)C(=O)N(C)[C@@H](CC(C)C)C(=O)N(C)[C@@H](CC(C)C)C(=O)N(C)[C@@H](C(C)C)C(=O)N1C` [PSC 833, ([3′-Keto-Bmt1]-Val2)-cyclosporine] was run?
Answer: The value was 80%.

Question: And the cell kill (MCF-7-AdrR cells [3]; PSC 833 0.5 μM, 5-days)?
Answer: Its cell kill is 10%.

Question: And the “reduction in cell survival” value (MCF-7-AdrR cells [3]; PSC 833 10 μM, four days)?
Answer: The value was 35%.

Question: What about the cell viability (MCF-7-AdrR cells [3]; adriamycin 2.5 μM, PSC 833 5.0, tamoxifen 5.0 μM alone or combined, 3-days) of the same molecule?
Answer: The cell viability was “without influence”.

Question: What about the “ceramide increase in KB-V-1 relative to increase in MCF-7-AdrR cells” value (KB-V-1 cells [8]) of the same molecule?
Answer: The value was 4 fold.

Question: And the “radiolabeled sphingomyelin, increase over the control” value (KB-V-1 cells [8]; 24 h)?
Answer: The value was 33%.

Question: What about the “tritiated ceramide level, increase over untreated cells” value (KB-V-1 cells [8]; 24 h) of the same molecule?
Answer: Its value is 8.7 fold.

Question: What about the “cell death (not measured, estimated)” value (KB-V-1 cells [9]) of the same molecule?
Answer: Its value is about 80%.

Question: And the “concentration at which activation of glucosylceramide formation was apparent” value (MCF-7-AdrR cells [6]; 60 min then [3H]palmitic acid for 23 h)?
Answer: Its value is 0.1 µM.

Question: What about the “glucosylceramide level (TLC autoradiography)” value (MCF-7-AdrR cells [6]; PSC 833 2.5 μM, overnight, [3H]serine) of the same molecule?
Answer: Its value is “increased markedly”.

Question: What about the “sphingomyelin, % of control” value (MCF-7-AdrR cells [6]; PSC 833 5.0 μM, 2 h) of the same molecule?
Answer: Its value is 150 % of control.

Question: What about the “time at which activation of cellular ceramide formation was discernible” value (MCF-7-AdrR cells [6]; PSC 833 5.0 μM, exposure 15 min-4 h) of the same molecule?
Answer: The value was 30 min.

Question: What about the “ceramide level, increase over control” value (MCF-7-AdrR cells [6]) of the same molecule?
Answer: Its value is 4.8 fold.

Question: What about the “cellular ceramide formation, dose-response” value (MCF-7-AdrR cells [6]; [10]) of the same molecule?
Answer: The value was “elicited an increase in cellular ceramide formation”.

Question: What about the “glucosylceramide formation, dose-response” value (MCF-7-AdrR cells [6]; [10]) of the same molecule?
Answer: The value was “resulted in glucosylceramide synthesis”.
